Reference: patent publication US7491827B2, “Aryl sulfonamides useful as inhibitors of chemokine receptor activity” (Millennium Pharmaceuticals, Inc., priority 2003, dated 2009)
Where two headings read alike, the source gives them in different places.

Target: T1, cloned human CCR8 receptor stably expressed in L1.2 cells (Homo sapiens, UniProt P51685)
T1 construct: expressed in transfected cells
Assay: whole cell binding screen: inhibition of biotinylated human I309 binding to CCR8 (FMAT 8100 HTS)
Conditions: biotinylated human I-309, 10 point concentration response starting at 10 μM
Description: This whole cell binding screen evaluates the ability of compounds to inhibit biotinlyated human I309 binding to the cloned human CCR8 receptor stably expressed in L1.2 cells. Human CCR8 gene was amplified by PCR using PFU polymerase under standard conditions from human genomic DNA purchased from Stratagene. The PCR primers used were:
The 5′ and 3′ primers contained flanking enzyme sites (Bam Hi and Not 1,respectively), which were used to subclone the gene into pcDNA3.1. […] The CCR8 vector was then transfected into L1.2 cells (murine pre-B cells) by electroporation.
Compounds were screened using the FMAT™ 8100 HTS System (purchased from Applied Biosystems).
A suspension was prepared of L1.2/hCCR8 cells at 4.0×10^5 cells/mL in a binding buffer (Buffer consisting of Hanks Balanced Salt Solution (without phenol red), 10 mM HEPES, 0.1% Fatty Acid Free BSA, 0.02% Sodium Azide).
Dilution series of 10 mM stock concentrations of the test compounds were prepared in DMSO and further diluted into binding buffer defined above) to three times the final assay concentration.
10 point concentration response curve is constructed for each compound, starting at 10 μM (final assay concentration in Binding Buffer). […] The components were mixed in wells by covering the plate with aluminum foil and rotating for 0.5 hours. […] Average fluorescence reported for each concentration was normalized to percent inhibition based on negative (no inhibitor) and positive (100 nM excess unlabeled I309 (R and D Systems)) controls.

[1] = L1.2/hCCR8 cells, read-out: Ki of compounds to inhibit I-309 binding to CCR8

T1 sequence (P51685 whole entry): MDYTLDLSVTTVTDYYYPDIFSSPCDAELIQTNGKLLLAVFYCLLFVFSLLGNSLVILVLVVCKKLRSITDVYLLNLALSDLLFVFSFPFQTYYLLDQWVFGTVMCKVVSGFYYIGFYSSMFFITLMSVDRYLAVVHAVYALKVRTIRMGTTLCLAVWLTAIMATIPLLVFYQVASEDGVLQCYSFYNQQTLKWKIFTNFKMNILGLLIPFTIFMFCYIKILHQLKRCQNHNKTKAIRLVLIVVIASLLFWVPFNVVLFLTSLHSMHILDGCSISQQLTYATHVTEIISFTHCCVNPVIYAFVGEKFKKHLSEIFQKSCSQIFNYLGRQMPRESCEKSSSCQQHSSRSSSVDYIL

Compound	Ki [1]	Ki (Ki of compounds to inhibit I-309 binding to CCR8, L1.2/hCCR8 cells)
CCCC(=O)N1CCC(NS(=O)(=O)c2ccc(NC(=O)c3ccccc3C)c3ccccc23)C(C)(C)C1 (racemic) [Compound C-23, (±)-N-[4-(1-Butyryl-3,3-dimethyl-piperidin-4-ylsulfamoyl)-naphthalen-1-yl]-2-methyl-benzamide]	< 30000 nM	–
CC(C)c1ccc(NS(=O)(=O)c2ccc3cccc(NC(=O)c4ccccc4)c3c2)cc1 [Compound H-50, N-[7-(4-Isopropyl-phenylsuffamoyl)-naphthalen-1-yl]-benzamide]	< 30000 nM	–
CCOC(=O)N1CCC(NS(=O)(=O)c2cccc3c(NC(=O)c4cccc(C)c4)cccc23)CC1 [Compound H-13, 4-[5-(3-Methyl-benzoylamino)-naphthalene-1-sulfonylamino]-piperidine-1-carboxylic acid ethyl ester]	< 30000 nM	–
O=C(Nc1ccc(S(=O)(=O)NC2CCNCC2)c2ccccc12)C1CC1 [Compound D-12, Cyclopropanecarboxylic acid [4-(piperidin-4-ylsulfamoyl)-naphthalen-1-yl]-amide]	< 30000 nM	–
CCCC(=O)N1CC[C@H](NS(=O)(=O)c2ccc(NC(=O)c3ccccc3C)c3ccccc23)[C@H](C(=O)O)C1 (racemic) [Compound C-78, (±)-(cis)-1-Butyryl-4-[4-(2-methyl-benzoylamino)-naphthalene-1-sulfonylamino]-piperidine-3-carboxylic acid]	< 30000 nM	–
CCOC(=O)N1CCC(NS(=O)(=O)c2ccc(C(=O)Nc3ccccc3C)c3ccccc23)CC1 [Compound F-11, 4-(4-o-Tolylcarbamoyl-naphthalene-1-sulfonylamino)-piperidine-1-carboxylic acid ethyl ester]	–	< 500 nM
CCOC(=O)N1CCC(NS(=O)(=O)c2cccc3c(C(=O)Nc4ccccc4)cccc23)CC1 [Compound H-27, 4-(5-Phenylcarbamoyl-naphthalene-1-sulfonylamino)-piperidine-1-carboxylic acid ethyl ester]	< 1000 nM	–
CCOC(=O)N1CCC(NS(=O)(=O)c2ccc(CNCc3ncc[nH]3)c3ccccc23)CC1 [Compound G-9, 4-(4-{[(lH-Imidazol-2-ylmethyl)-amino]-methyl}-naphthalene-1-sulfonylamino)-piperidine-1-carboxylic acid ethyl ester]	< 30000 nM	–
O=C(Nc1ccc(S(=O)(=O)NCc2ccncc2)c2ccccc12)c1ccccc1 [Compound A-13, N-{4-[(Pyridin-4-ylmethyl)-sulfamoyl]-naphthalen-1-yl}-benzamide]	< 30000 nM	–
CCC(C)N1CCC(NS(=O)(=O)c2ccc(NC(=O)c3ccccc3C)c3ccccc23)CC1 (racemic) [Compound C-32, (±)-N-[4-(1-sec-Butyl-piperidin-4-ylsulfamoyl)-naphthalen-1-yl]-2-methyl-benzamide]	< 1000 nM	–
Cc1ccccc1C(=O)Nc1ccc(S(=O)(=O)NC2[C@@H](C)CN(Cc3ccccc3)C[C@@H]2C)c2ccccc12 (racemic) [Compound A-45, (±)-(cis, trans)-N-[4-(1-Benzyl-3,5-dimethyl-piperidin-4-ylsulfamoyl)-naphthalen-1-yl]-2-methyl-benzamide]	< 30000 nM	–
COC(=O)N1CCC(NS(=O)(=O)c2ccc(NC(=O)c3ccccc3C)c3c2CCCC3)CC1 [Compound E-15, 4-[4-(2-Methyl-benzoylamino)-5,6,7,8-tetrahydro-naphthalene-1-sulfonylamino]-piperidine-1-carboxylic acid methyl ester]	< 500 nM	–

Further lines, results first:

Ki [1]	Ki (Ki of compounds to inhibit I-309 binding to CCR8, L1.2/hCCR8 cells)	Compound
< 500 nM	–	CC(C)(C)OC(=O)N1CCC(NS(=O)(=O)c2ccc(NC(=O)c3ccccc3F)c3ccccc23)CC1 [Compound B-15, 4-[4-(2-Fluoro-benzoylamino)-naphthalene-1-sulfonylamino]-piperidine-1-carboxylic acid tert-butyl ester]
< 500 nM	–	CCOC(=O)N1CC[C@H](NS(=O)(=O)c2ccc(NC(=O)c3c(C)noc3C)c3ccccc23)[C@H](C)C1 (racemic) [Compound D-8, (±)-(cis)-4-{4-[(3,5-Dimethyl-isoxazole-4-carbonyl)-amino]-naphthalene-1-sulfonylamino}-3-methyl-piperidine-1-carboxylic acid ethyl ester]
< 500 nM	–	CCCC(=O)N1CCC(NS(=O)(=O)c2cccc3c(C(=O)NC4CCCC(C)C4C)cccc23)CC1 (racemic) [Compound H-31, (±)-5-(1-Butyryl-piperidin-4-ylsulfamoyl)-naphthalene-1-carboxylic acid (2,3-dimethyl-cyclohexyl)-amide]
< 500 nM	–	CCCC(=O)N1CC[C@H](NS(=O)(=O)c2ccc(NC(=O)c3ccccc3C)c3ccccc23)[C@@H](C)C1 (racemic) [Compound C-19, (±)-trans-N-[4-(1-Butyryl-3-methyl-piperidin-4-ylsulfamoyl)-naphthalen-1-yl]-2-methyl-benzamide]
< 500 nM	–	Cc1ccccc1C(=O)Nc1ccc(S(=O)(=O)NC2CCCCC2)c2c1CCCC2 [Compound E-9, N-(4-Cyclohexylsulfamoyl-5,6,7,8-tetrahydro-naphthalen-1-yl)-2-methyl-benzamide]
< 500 nM	–	Cc1ccccc1C(=O)Nc1ccc(S(=O)(=O)NC2CCN(C(=O)CN(C)C)CC2)c2ccccc12 [Compound C-55, N-{4-[1-(2-Dimethylamino-acetl)-piperidin-4-ylsulfamoyl]-naphthalen-1-yl}-2-methyl-benzamide]
< 500 nM	–	CCOC(=O)N1CCC(NS(=O)(=O)c2ccc(CNCc3cccnc3)c3ccccc23)CC1 [Compound G-12, 4-(4-{[(Pyridin-3-ylmethyl)-amino]-methyl}-naphthalene-1-sulfonylamino)-piperidine-1-carboxylic acid ethyl ester]
< 500 nM	–	CCOC(=O)N1CCC(NS(=O)(=O)c2cccc3c(C(=O)NC4CCCC(C)C4C)cccc23)CC1 (racemic) [Compound H-30, (±)-4-[5-(2,3-Dimethyl-cyclohexylcarbamoyl)-naphthalene-1-sulfonylamino]-piperidine-1-carboxylic acid ethyl ester]
< 500 nM	–	CC[C@H](N)C(=O)N1CCC(NS(=O)(=O)c2ccc(NC(=O)c3ccccc3C)c3ccccc23)CC1 [Compound C-126, (S)-N-{4-[1-(2-Amino-butyryl)-piperidin-4-ylsulfamoyl]-naphthalen-1-yl}-2-methyl-benzamide]
< 500 nM	–	CCCC(=O)N1C[C@H](C)C(NS(=O)(=O)c2ccc(NC(=O)c3ccccc3C)c3ccccc23)[C@@H](C)C1 (racemic) [Compound C-66, (±)-(cistrans)-N-[4-(1-Butyryl-3,5-dimethyl-piperidin-4-ylsulfamoyl)-naphthalen-1-yl]-2-methyl-benzamide]
< 500 nM	–	CCCC(=O)N1CCC(NS(=O)(=O)c2ccc(NC(=O)c3ccccc3C(F)(F)F)c3ccccc23)CC1 [Compound C-101, N-[4-(1-Butyryl-piperidin-4-ylsulfamoyl)-naphthalen-1-yl]-2-trifluoromethyl-benzamide]
< 500 nM	–	Cc1ccccc1C(=O)Nc1ccc(S(=O)(=O)NC2CCN(C(=O)CN3CCCC3)CC2)c2ccccc12 [Compound C-147, 2-Methyl-N-{4-[1-(2-pyrrolidin-1-yl-acetyl)-piperidin-4-ylsulfamoyl]-naphthalen-1-yl}-benzamide]
< 500 nM	–	Cc1ccccc1C(=O)Nc1ccc(S(=O)(=O)NC2CCN(C(=O)OC(C)(C)C)C2)c2c1CCC2 (racemic) [Compound H-68, (±)-3-[7-(2-Methyl-benzoylandno)-indane-4-sulfonylamino]-pyrrolidine-1-carboxylic acid tert-butyl ester]
< 500 nM	–	CCCC(=O)N1CCC(NS(=O)(=O)c2ccc(C(=O)Nc3cccc(C)c3C)c3ccccc23)CC1 [Compound F-19, 4-(1-Butyryl-piperidin-4-ylsulfamoyl)-naphthalene-1-carboxylic acid (2,3-dimethyl-phenyl)-amide]
< 500 nM	–	Cc1ccccc1C(=O)Nc1ccc(S(=O)(=O)NC2CCN(C(=O)OC(C)C)CC2)c2ccccc12 [Compound C-37, 4-[4-(2-Methyl-benzoylamino)-naphthalene-1-sulfonylamino]-piperidine-1-carboxylic acid isopropyl ester]
< 500 nM	–	CCCC(=O)N1CC[C@H](NS(=O)(=O)c2ccc(NC(=O)c3cccnc3C)c3ccccc23)[C@@H](C)C1 (racemic) [Compound D-10, (±)-(trans)-N-[4-(1-Butyryl-3-methyl-piperidin-4-ylsulfamoyl)-naphthalen-1-yl]-2-methyl-nicotinamide]
< 500 nM	–	CC(C)c1ccc(NS(=O)(=O)c2ccc(NC(=O)c3ccccc3)c3ccccc23)cc1 [Compound A-28, N-[4-(4-Isopropyl-phenylsulfamoyl)-naphthalene-1-yl]-benzamide]
< 500 nM	–	CCCC(=O)N1CCC(NS(=O)(=O)c2cccc3c(C(=O)Nc4cccc(C)c4C)cccc23)CC1 [Compound H-37, 5-(1-Butyryl-piperidin-4-ylsulfamoyl)-naphthalene-1-carboxylic acid (2,3-dimethyl-phenyl)-amide]
